Calls of active or inactive are those of the source. The rule behind the calls is not given here.
Columns and labels:
[1] = species: Bos taurus; assay: Inhibition of [125I]ChTX binding to Maxi-K channels in bovine aortic sarcolemmal membranes; assay type: cell membranes; conditions: Aorta
[2] = biological target: Potassium voltage-gated channel subfamily A member 3 (Rattus norvegicus) (UniProt P15384); assay: Inhibition of [125I]ChTX binding to voltage-gated potassium channel in rat brain synaptic plasma membranes; No effect; assay type: cell membranes; conditions: Membrane
Potassium voltage-gated channel subfamily A member 3 (Rattus norvegicus), sequence (P15384 whole entry): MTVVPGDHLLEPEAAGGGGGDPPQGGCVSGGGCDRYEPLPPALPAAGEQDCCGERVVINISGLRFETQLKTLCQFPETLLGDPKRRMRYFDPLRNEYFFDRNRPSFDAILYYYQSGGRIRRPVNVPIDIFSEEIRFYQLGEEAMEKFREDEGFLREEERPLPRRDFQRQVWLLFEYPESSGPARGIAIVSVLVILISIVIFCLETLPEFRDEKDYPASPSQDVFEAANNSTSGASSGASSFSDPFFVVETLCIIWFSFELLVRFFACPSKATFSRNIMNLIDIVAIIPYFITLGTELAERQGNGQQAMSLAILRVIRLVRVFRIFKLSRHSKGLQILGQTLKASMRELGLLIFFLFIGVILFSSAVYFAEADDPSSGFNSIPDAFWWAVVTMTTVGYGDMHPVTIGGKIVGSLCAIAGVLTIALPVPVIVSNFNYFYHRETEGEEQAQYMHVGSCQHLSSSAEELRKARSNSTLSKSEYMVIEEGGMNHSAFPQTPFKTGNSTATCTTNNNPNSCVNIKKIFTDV

inhibition [1]: 200 nM
inhibition [2]: inactive
SMILES: CC1=CC[C@@]2(C)C[C@H](O)[C@@](O)(C(C)C)[C@@H]2CC1

Source: ChEMBL document CHEMBL1128868, “A carotane sesquiterpene as a potent modulator of the Maxi-K channel from Arthrinium phaesospermum” (Bioorg Med Chem Lett, 1995)
